Assay results as given in the supplement of paper PMC10331698.
± gives the standard deviation of the averaged measurements.

What was measured:
Experiment in all cases: level (log10 ratio to DMSO vehicle control); higher = higher biomarker level / cell amount than vehicle control
[1] = compound: O=S(=O)(O)C(F)(F)C(F)(F)OC(F)(F)C(F)(F)F [Perfluoro(2-ethoxyethane)sulfonic acid] (in DMSO)
Experimental: (§1)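 BioMAP Diversity Plus panel of 12 human primary cell co-culture systems (3C, 4H, LPS, SAg, BT, BF4T, BE3C, CASM3C, HDF3CGF, KF3CT, MyoF, Mphg). Compounds were added 1 h before stimulation and left for 24 h (MyoF 48 h; BT 72 h for soluble read-outs or 6 d for IgG). Biomarkers were read by ELISA, cytotoxicity by SRB, PBMC viability and proliferation by Alamar Blue. Each well value was divided by the mean of 8 DMSO control wells on the same plate and log10 transformed; duplicate blinded samples were tested at 4 concentrations.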

[2] = compound: O=C(O)C(F)(OC(F)(F)C(F)(OC(F)(F)C(F)(OC(F)(F)C(F)(F)C(F)(F)F)C(F)(F)F)C(F)(F)F)C(F)(F)F [Perfluoro-(2,5,8-trimethyl-3,6,9-trioxadodecanoic)acid] (in DMSO)
Experimental: as §1

[3] = compound: OCCC(F)(F)C(F)(F)C(F)(F)C(F)(F)F [4:2 Fluorotelomer alcohol] (in DMSO)
Experimental: as §1

Perfluoroundecanoic acid = compound: O=C(O)C(F)(F)C(F)(F)C(F)(F)C(F)(F)C(F)(F)C(F)(F)C(F)(F)C(F)(F)C(F)(F)C(F)(F)F [Perfluoroundecanoic acid] (in DMSO); details: 6700 nM
Experimental: as §1

Perfluorononanoic acid = compound: O=C(O)C(F)(F)C(F)(F)C(F)(F)C(F)(F)C(F)(F)C(F)(F)C(F)(F)C(F)(F)F [Perfluorononanoic acid] (in DMSO)
Experimental: as §1

[4] = compound: NS(=O)(=O)C(F)(F)C(F)(F)C(F)(F)C(F)(F)C(F)(F)C(F)(F)C(F)(F)C(F)(F)F [Perfluorooctanesulfonamide] (in DMSO)
Experimental: as §1

[5] = compound: C[C@@H]1C[C@H]2[C@@H]3CCC4=CC(=O)C=C[C@]4(C)[C@@]3(F)[C@@H](O)C[C@]2(C)[C@@]1(O)C(=O)COP(=O)(O)O [Dexamethasone sodium phosphate] (in DMSO)
Experimental: as §1

Test System	level (log10) ([1]; 6700 nM)	level (log10) ([1]; 20000 nM)	level (log10) ([1]; 60000 nM)	level (log10) ([2]; 1100 nM)	level (log10) ([2]; 3300 nM)	level (log10) ([2]; 10000 nM)	level (log10) ([3]; 6700 nM)	level (log10) ([3]; 20000 nM)	level (log10) ([3]; 60000 nM)	level (log10) (Perfluoroundecanoic acid)	level (log10) (Perfluorononanoic acid; 6700 nM)	level (log10) (Perfluorononanoic acid; 20000 nM)	level (log10) ([4]; 6700 nM)	level (log10) ([4]; 20000 nM)	level (log10) ([5]; 1500 nM)	level (log10) ([5]; 4400 nM)	level (log10) ([5]; 13000 nM)	level (log10) ([5]; 40000 nM)
BF4T:MMP-1	-0.002 ± 0.013	-0.0005 ± 0.00071	0.0125 ± 0.0064	0.0005 ± 0.0092	-0.0045 ± 0.011	0.0065 ± 0.018	-0.008 ± 0.031	-0.0005 ± 0.036	0.0085 ± 0.015	-0.0045 ± 0.005	-0.012 ± 0.028	0.0095 ± 0.016	0.003 ± 0.016	0.0075 ± 0.019	0.006 ± 0.0014	-0.012 ± 0.013	-0.0215 ± 0.0092	-0.0125 ± 0.0021
BF4T:MMP-3	0.0015 ± 0.0064	0.0105 ± 0.023	0.0805 ± 0.067	-0.01 ± 0.0014	-0.01 ± 0.014	0.015 ± 0.017	-0.0135 ± 0.021	-0.008 ± 0.013	-0.011 ± 0.014	-0.002 ± 0.038	0.0005 ± 0.035	0.015 ± 0.0071	0.004 ± 0.024	0.0845 ± 0.028	0.0565 ± 0.083	0.006 ± 0.061	-0.03 ± 0.05	0.0185 ± 0.033
BF4T:MMP-9	0.003 ± 0.042	-0.0005 ± 0.019	0.0295 ± 0.0021	0.0045 ± 0.015	-0.003 ± 0.0028	0.0135 ± 0.00071	-0.0075 ± 0.03	-0.013 ± 0.0071	-0.011 ± 0.031	-0.056 ± 0.04	-0.034 ± 0.038	-0.032 ± 0.0042	-0.006 ± 0.025	-0.113 ± 0.018	0.051 ± 0.041	0.026 ± 0.037	0.0035 ± 0.046	0.0225 ± 0.063
BF4T:PAI-I	-0.002 ± 0.0014	-0.002 ± 0.0028	0.0105 ± 0.021	0.011 ± 0.0071	-0.0025 ± 0.0092	0.006 ± 0.018	-0.0075 ± 0.023	0.0005 ± 0.035	0.0005 ± 0.00071	0.007 ± 0.0085	-0.0145 ± 0.03	-0.007 ± 0.028	-0.004 ± 0.011	-0.038 ± 0.0099	-0.0005 ± 0.022	0.01 ± 0.013	0.001 ± 0.018	0.0085 ± 0.0021
BF4T:SRB	0.0045 ± 0.015	0.001 ± 0.0099	0.004 ± 0.018	-0.0035 ± 0.00071	-0.0035 ± 0.011	0.003 ± 0.023	-0.0075 ± 0.00071	-0.0105 ± 0.0078	-0.0045 ± 0.012	-0.0115 ± 0.0035	-0.002 ± 0.0014	-0.028 ± 0.0014	-0.009 ± 0.0028	-0.052	0.0155 ± 0.0078	0.0005 ± 0.0064	0.01 ± 0.013	0.0135 ± 0.016
BF4T:tPA	-0.0095 ± 0.022	-0.004 ± 0.021	0.017 ± 0.05	-0.012 ± 0.02	-0.012 ± 0.0042	-0.0035 ± 0.021	-0.0085 ± 0.056	-0.0155 ± 0.071	0.022	-0.043 ± 0.037	-0.025 ± 0.027	-0.0995 ± 0.026	-0.059 ± 0.013	0.006 ± 0.02	0.0375 ± 0.05	0.01 ± 0.034	0.0145 ± 0.016	0.027 ± 0.021
BF4T:uPA	-0.003 ± 0.011	-0.0025 ± 0.021	0.0235 ± 0.00071	0.008 ± 0.0028	0.0015 ± 0.0035	0.004 ± 0.0071	-0.008 ± 0.035	0.012 ± 0.013	0.018 ± 0.025	0.0275 ± 0.0064	-0.01 ± 0.054	0.0335 ± 0.032	0.014 ± 0.016	0.005 ± 0.034	0.006 ± 0.025	-0.013 ± 0.045	-0.002 ± 0.013	-0.002 ± 0.0028
BT:B cell Proliferation	0.011 ± 0.011	0.0575 ± 0.036	0.034 ± 0.0014	-0.029 ± 0.027	-0.0035 ± 0.013	-0.0145 ± 0.011	0.0125 ± 0.0035	0.0155 ± 0.033	0.019 ± 0.0042	-0.0035 ± 0.025	0.0085 ± 0.0092	0.0365 ± 0.022	0.0205 ± 0.0064	0.024 ± 0.028	-0.0145 ± 0.011	0.005 ± 0.013	-0.0245 ± 0.019	-0.0025 ± 0.015
BT:PBMC Cytotoxicity	0.0245 ± 0.033	0.0005 ± 0.0035	0.056 ± 0.013	-0.0095 ± 0.0092	-0.022 ± 0.011	-0.04 ± 0.047	-0.044 ± 0.0042	-0.0365 ± 0.013	-0.045 ± 0.031	0.0085 ± 0.029	-0.0065 ± 0.036	0.0515 ± 0.015	0.0175 ± 0.0064	0.03 ± 0.0099	-0.0915 ± 0.00071	-0.102 ± 0.028	-0.107 ± 0.0064	-0.0975 ± 0.039
BT:Secreted IgG	0.0355 ± 0.0035	-0.0135 ± 0.084	-0.0095 ± 0.086	0.0215 ± 0.049	0.0315 ± 0.013	0.0065 ± 0.021	0.023 ± 0.028	0.0205 ± 0.018	0.013 ± 0.0057	0.003 ± 0.011	0.0275 ± 0.021	0.0335 ± 0.026	-0.018 ± 0.0085	-0.141 ± 0.1	0.024 ± 0.0085	0.002	0.034 ± 0.011	0.0025 ± 0.036
BT:sIL-2	-0.023 ± 0.0085	-0.0935 ± 0.04	-0.0595 ± 0.066	0 ± 0.05	0.061 ± 0.069	0.0465 ± 0.026	0.0085 ± 0.064	0.0625 ± 0.11	0.0265 ± 0.071	0.03 ± 0.033	0.0075 ± 0.039	0.0105 ± 0.011	-0.0115 ± 0.049	0.0005 ± 0.028	-0.442 ± 0.033	-0.451 ± 0.12	-0.458 ± 0.039	-0.456 ± 0.032
BT:sIL-6	0.006 ± 0.03	-0.029 ± 0.0085	-0.027 ± 0.076	-0.0085 ± 0.07	0.0025 ± 0.053	0.038 ± 0.013	0.035 ± 0.02	0.0455 ± 0.036	0.009 ± 0.069	0.0325 ± 0.019	0.0215 ± 0.016	0.0145 ± 0.0092	-0.0455 ± 0.023	-0.0485 ± 0.026	-0.2605 ± 0.0021	-0.281 ± 0.07	-0.3065 ± 0.0021	-0.33 ± 0.061
BT:sIL-17A	-0.0995 ± 0.17	-0.131 ± 0.05	-0.148 ± 0.19	-0.024 ± 0.11	0.121 ± 0.12	0.0575 ± 0.17	-0.007 ± 0.21	-0.043 ± 0.11	-0.037 ± 0.18	-0.06 ± 0.25	-0.05 ± 0.0085	0.0015 ± 0.022	-0.0315 ± 0.16	0.0435 ± 0.052	-0.776 ± 0.019	-0.55 ± 0.03	-0.652 ± 0.057	-0.717 ± 0.042
BT:sIL-17F	-0.0315 ± 0.022	-0.071 ± 0.031	-0.0005 ± 0.021	0.044 ± 0.064	0.0125 ± 0.16	-0.0705 ± 0.046	0.0025 ± 0.03	0.075 ± 0.055	0.0675 ± 0.14	-0.0225 ± 0.056	-0.0305 ± 0.0064	0.002 ± 0.15	-0.0365 ± 0.084	-0.0785 ± 0.11	-0.259 ± 0.0099	-0.251 ± 0.058	-0.262 ± 0.012	-0.239 ± 0.047
